What all share (experiment): NCI anticancer screen, dose series, 48 h
Experiment [1] deals with CCRF-CEM leukemia.
In experiment [2] the test system is HT29 colon.
The test system of experiment [3] is K-562 leukemia.
For experiment [4], the system named is NCI-H460 lung.
Experiment [5] relates to NCI-H522 lung.
In experiment [6] the test system is OVCAR-3 ovarian.
Experiment [7] relates to OVCAR-8 ovarian.
Experiment [8] has as its system SF-268 CNS.
Experiment [9] deals with U251 CNS.
Experiment [10] deals with UACC-257 melanoma.

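Exposure lasted 48 hours, with cells grown in 96-well plates and compounds tested at five concentrations. Here, GI50 denotes the concentration required for 50% inhibition of growth. TGI denotes the concentration required for complete inhibition of growth.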

Take `Cc1cc(O)cc(C)c1/C=C/c1cncc(C(=O)N(C)C)c1`: the GI50 in experiment [1] was > 25000 nM; in [2] it was > 25000 nM; in [3], > 25000 nM; in experiment [4] it was > 25 µM; in [5], > 25000 nM; in [6] it was > 25000 nM. For the same compound, the GI50 in [7], in experiment [8], in experiment [9] and in [10] was > 25 µM each time. For the same compound, the TGI in experiment [1], in [2], in experiment [3], in experiment [4], in [5] and in [6] was > 25 µM in each case. Moreover, the TGI in experiment [7], in experiment [8], in experiment [9] and in experiment [10] was > 25 µM throughout.
Consider `O=C(O)c1[nH]c(C(=O)O)c(CC(F)(F)C(F)(F)C(F)(F)F)c1CC(F)(F)C(F)(F)C(F)(F)F`, for which the TGI in experiment [1], in experiment [2], in experiment [3], in experiment [4], in experiment [5] and in experiment [6] was > 100 µM in each case. Besides, the TGI in [7], in experiment [8], in [9] and in [10] was > 100 µM throughout.
Turning to `CCCCc1cc(O)ccc1O`, the GI50 in experiment [1] is 2790 nM; in experiment [2], 43100 nM; in experiment [3], 10300 nM; in experiment [4], 39 µM; in [5] it was 2280 nM; in experiment [6], 7840 nM. The GI50 is 28.2 µM in experiment [7], 15.5 µM in experiment [8], 37.4 µM in experiment [9] and 78.2 µM in [10]. Also, the TGI in [1] is 60.6 µM; in experiment [2] it was > 100 µM; in experiment [3], > 100 µM; in experiment [4], > 100 µM; in [5], 6.97 µM; in experiment [6], 21.8 µM. For the same compound, the TGI in experiment [7], in [8], in [9] and in experiment [10] was > 100 µM each time.
Turning to `CC(=O)O/C(C)=C\C(=O)O/N=C(\N)c1ccc(C)cc1`, the TGI in experiment [1] was 41.5 µM; in experiment [2], > 100 µM; in experiment [3], 52.1 µM; in [4], > 100 µM; in [5], 49.1 µM; in [6] it was > 100 µM. The TGI in experiment [7] is > 100 µM; in experiment [8], 91.6 µM; in experiment [9], 40.5 µM; in experiment [10], > 100 µM.
As for `O=C(O)C(Cc1ccc(O)c([N+](=O)[O-])c1)N1C(=O)c2ccccc2C1=O` (stereo unspecified), the TGI in experiment [1], in experiment [2], in experiment [3], in [4], in experiment [5] and in experiment [6] was > 100 µM throughout. In addition, the TGI in experiment [7], in experiment [8], in experiment [9] and in experiment [10] was > 100 µM throughout.
On to `O=C(O)c1nnsc1COCc1ccccc1`, for which the TGI in [1], in experiment [2], in experiment [3], in experiment [4], in [5] and in [6] was > 100 µM throughout. The TGI in [7], in experiment [8], in experiment [9] and in [10] was > 100 µM each time.
Turning to `CCCc1ccc(N=Cc2cc(OC)c(OC)c(OC)c2)cc1`, the TGI in experiment [1] is > 100 µM; in experiment [2], > 100 µM; in [3] it was > 72.6 µM; in experiment [4] it was > 100 µM; in [5] it was > 100 µM; in [6] it was > 100 µM. Moreover, the TGI in experiment [7], in [8], in [9] and in experiment [10] was > 100 µM in each case.
On to `CCCCCCCCCCCC(=O)C1=C(O)C(O)CCC1=O` (stereo unspecified), for which the TGI in experiment [1] was 40.6 µM; in experiment [2], 30.1 µM; in experiment [3], 43 µM; in experiment [4], 44.4 µM; in [5], 33.1 µM; in experiment [6], 38.3 µM. For the same compound, the TGI in experiment [7] was 36.6 µM; in [8], > 100 µM; in experiment [9], 55.5 µM; in experiment [10], 37.2 µM.
With `O=C(N/N=C/c1ccc(F)cc1)c1[nH]c2ccc(I)cc2c1-c1ccccc1`, the GI50 in experiment [1] is 383 nM; in experiment [2], 350 nM; in experiment [3], 325 nM; in experiment [4], 0.399 µM; in experiment [5], 257 nM; in [6], 229 nM. For the same compound, the GI50 in experiment [7] was 0.971 µM; in experiment [8], 0.772 µM; in [9], 0.484 µM; in experiment [10], 3.73 µM. Moreover, the TGI was 10 µM in [2]; 5.04 µM in [4]; 1.74 µM in [5]; 0.531 µM in [6]; > 51.2 µM in experiment [7]; > 80.7 µM in experiment [8]. The figures for the TGI in [9] and in [10] were > 37.9 µM and > 96.6 µM, respectively.
Consider `NC(N)=NNC(=O)C(=O)O`, for which the TGI in experiment [1], in experiment [2], in [3], in experiment [4], in [5] and in experiment [6] was > 100 µM each time. Moreover, the TGI in experiment [7], in [8], in [9] and in experiment [10] was > 100 µM throughout.
As for `CCOC(=O)/C=C/c1ccc(C(=O)OCC)[nH]1`, the GI50 in experiment [1] was 6040 nM; in experiment [2], 2820 nM; in [3] it was 649 nM; in experiment [4], 3.08 µM; in experiment [5], 2690 nM; in experiment [6], 2380 nM. Besides, the GI50 is 5.82 µM in experiment [7], 6.65 µM in [8], 3.92 µM in experiment [9] and 11.3 µM in [10]. In addition, the TGI in experiment [1] was > 100 µM; in [2], 14.2 µM; in experiment [3], > 100 µM; in [4], 14.5 µM; in experiment [5], 8.89 µM; in experiment [6] it was 7.64 µM. In addition, the TGI in experiment [7], in experiment [8], in experiment [9] and in [10] was > 100 µM throughout.
Turning to `Cc1c2ncccc2c(C)c2c1[nH]c1ccccc12`, the TGI turned out to be 35.3 µM in experiment [1]; 25.7 µM in experiment [2]; 41.7 µM in experiment [3]; 28.7 µM in experiment [4]; 26.7 µM in experiment [5]; 28.3 µM in experiment [6]. Moreover, the TGI turned out to be 27.8 µM in experiment [7], 34.8 µM in experiment [8], 24.7 µM in [9] and 32 µM in experiment [10].
As for `COc1cccc2c1C1=CC(=O)CCC1C(C)(C)O2` (stereo unspecified), the TGI in experiment [1], in [2], in experiment [3], in [4], in experiment [5] and in experiment [6] was > 100 µM in each case. In addition, the TGI in experiment [7], in [8], in [9] and in experiment [10] was > 100 µM throughout.
Consider `CN(C)CCNC(=O)c1cc([N+](=O)[O-])cc2ccc(-c3ccccc3)nc12`, for which the TGI is 13.6 µM in experiment [1]; 40 µM in experiment [2]; 54.1 µM in experiment [3]; 12.8 µM in experiment [4]; 17.2 µM in experiment [5]; 54.3 µM in [6]. The TGI in experiment [7] was > 39.2 µM; in [8], 50 µM; in experiment [9] it was 32 µM; in [10], 20.8 µM.
Regarding `CC1(C)C(=O)/C(=C\c2ccco2)C[C@]2(C)[C@H]3CC=C4[C@@H]5C[C@](C)(C(=O)O)CC[C@]5(C)CC[C@@]4(C)[C@]3(C)CC[C@@H]12`, the GI50 was 5900 nM in experiment [1]; 11700 nM in [2]; 5170 nM in experiment [3]; 5.45 µM in experiment [4]; 9260 nM in experiment [5]; 10900 nM in [6]. Moreover, the GI50 in [7] was 6 µM; in experiment [8] it was 12.1 µM; in experiment [9] it was 7.92 µM; in experiment [10], 12.5 µM. Moreover, the TGI in [1] was found to be 32.6 µM; in [2], 28.6 µM; in [3], 93 µM; in experiment [4], 20.9 µM; in [5], 25.6 µM; in [6], 26.1 µM. The TGI came to 42.4 µM in [7], 28.2 µM in experiment [8], 24.8 µM in experiment [9] and 38.9 µM in experiment [10].
For `O=Nc1c2cccnc2n2nnc3ccc(Cl)cc3c12`, the GI50 in experiment [1] is 45.2 nM; in [2] it was 1270 nM; in experiment [3], 239 nM; in experiment [4], 2.11 µM; in experiment [5] it was 1140 nM; in [6] it was 447 nM. Besides, the GI50 was 3.74 µM in [7], 1.8 µM in experiment [8], 2.57 µM in experiment [9] and 5.87 µM in [10]. Besides, the TGI in experiment [1] came to 2.76 µM; in [2], 14.5 µM; in experiment [3], 6.66 µM; in experiment [4], 7.8 µM; in [5] it was 3.38 µM; in experiment [6], 1.45 µM. Besides, the TGI in experiment [7] is 11.2 µM; in experiment [8] it was 9.4 µM; in experiment [9] it was 13.2 µM; in experiment [10], 23.3 µM.
For the compound `c1cc2c(cnc3cscc32)s1`, the TGI in experiment [1], in [2], in [3], in experiment [4], in experiment [5] and in [6] was > 100 µM in each case. Besides, the TGI in [7], in experiment [8], in [9] and in [10] was > 100 µM in each case.
For `Nc1ncnc2c1ncn2C1OC(C(=O)O)C(O)C1O` (stereo unspecified), the TGI in experiment [1], in experiment [2], in experiment [3], in experiment [4], in experiment [5] and in [6] was > 100 µM in each case. Moreover, the TGI in experiment [7], in experiment [8], in experiment [9] and in experiment [10] was > 100 µM throughout.
With `Cc1ccc(C)c(NC(=O)/C(=N\NC(N)=S)C(C#N)c2ccccc2)c1` (stereo unspecified), the TGI in experiment [1], in [2], in [3], in experiment [4], in experiment [5] and in [6] was > 100 µM in each case. Besides, the TGI in experiment [7], in experiment [8], in experiment [9] and in experiment [10] was > 100 µM each time.
With `COc1cc2ccc3c4cc(OC)c(OCc5ccccc5)cc4cnc3c2cc1OC`, the TGI in experiment [1], in experiment [2], in experiment [3], in experiment [4], in experiment [5] and in experiment [6] was > 100 µM in each case. For the same compound, the TGI in experiment [7], in [8], in [9] and in [10] was > 100 µM throughout.
Regarding `O=C1/C(=C\c2cccs2)Oc2ccccc21`, the TGI in experiment [1], in experiment [2], in experiment [3], in experiment [4], in [5] and in experiment [6] was > 100 µM throughout. Further, the TGI in experiment [7], in experiment [8], in experiment [9] and in experiment [10] was > 100 µM throughout.
As for `COc1ccc2c(C3(O)CCNCC3)c[nH]c2c1`, the TGI in experiment [1], in [2], in experiment [3], in experiment [4], in experiment [5] and in [6] was > 100 µM throughout. The TGI in experiment [7], in [8] and in experiment [9] was > 100 µM each time.
In the case of `c1c[nH]c(Cc2ncc(Cc3cnc[nH]3)[nH]2)n1`, the TGI was 58.7 µM in [1]; > 100 µM in experiment [2]; > 100 µM in experiment [3]; 96.2 µM in experiment [4]; > 100 µM in experiment [5]; > 100 µM in experiment [6]. For the same compound, the TGI in experiment [7], in experiment [8] and in experiment [9] was > 100 µM throughout.

The values are drawn from PubChem BioAssay (NCI).
